Molecules are shown by their SMILES. Converted amounts (≈) assume the structure as drawn. Some results are limits rather than exact numbers.

In general, MIC refers to the lowest concentration that inhibits growth of the organism. Read a high MIC as a less susceptible organism.

The nature of one data set: oral toxicity in mice. The conditions noted are these: mouse, in vivo, oral administration, read-out: oral dosage tolerated without exhibiting toxic symptoms. The method, then:
The new cephalosporin derivative of this invention may be administered orally at a unit dose of 100 mg to 250 mg to an adult human patient four times a day, for a guideline. However, precise dosage of the new cephalosporin is determinable through preliminary routine experiments, depending on the body weight, ages, sex and other various parameters of patients as well as the nature of the bacterial infections to be treated, and so on.

The subject of a further data set is Escherichia coli 255. The experiment in a line: antibacterial activity, MIC by standard serial dilution method. The format is cell-based. The procedure, abridged: (§1)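 Testing used the carboxylic acid, not a salt; inhibitory endpoints are stated as μg/ml.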
In data set [1] the test system is Citrobacter freundii GN346. Described as above. The class given is cell-based. The procedure, abridged: as §1
The subject of data set [2] is Escherichia coli NIHJ JC-2. Described as above. The class given is cell-based. Conditions: NIHJJC2. In a few lines:
as §1

The next data set deals with Proteus vulgaris GN76. The data set is described as above. The format is cell-based. The procedure, abridged:
as §1

The test system of data set [3] is Serratia marcescens GN10857. The description is as above. The format is cell-based. In a few lines:
as §1

Data set [4] has as its system Klebsiella pneumoniae GN69. The description is as above. The class given is cell-based. In a few lines:
as §1

Data set [5] concerns Enterobacter hirae ATCC8043. The description is as above. The class given is cell-based. In a few lines:
as §1

For data set [6], the system named is Marganella morganii 1510/S-1. Described as above. The format is cell-based. The procedure, abridged: as §1
Data set [7] has as its system Serratia marcescens No. 1. The data set is described as above. The format is cell-based. The procedure, abridged: as §1
The subject of data set [8] is Klebsiella pneumoniae PCI602. The data set is described as above. The class given is cell-based. The procedure, abridged: as §1
The test system of data set [9] is Staphylococcus aureus 209P JC-1. The data set is described as above. The class given is cell-based. In a few lines: as §1
Data set [10] concerns Entrobacter faecalis W-73. The data set is described as above. The class given is cell-based. In a few lines: as §1
The subject of data set [11] is Escherichia coli W3630 RGN823. Described as above. The format is cell-based. The conditions noted are these: W3630RGN823. The procedure, abridged:
as §1

The test system of data set [12] is Enterobacter cloacae GN7471. The data set is described as above. The class given is cell-based. The procedure, abridged: as §1
Another data set concerns Escherichia coli 255/S-1. Described as above. The format is cell-based. Conditions: 255/S1. The procedure, abridged:
as §1

The test system of data set [13] is Staphylococcus epidermidis ATCC14990. The data set is described as above. The class given is cell-based. The procedure, abridged: as §1
The next data set concerns Escherichia coli GN206. Described as above. The format is cell-based. The procedure, abridged:
as §1

A further data set concerns Marganella morganii 1510. The description is as above. The class given is cell-based. In a few lines: as §1
In data set [14] the test system is Citrobacter freundii GN346/16. The data set is described as above. The class given is cell-based. In a few lines:
as §1

Data set [15] deals with Proteus vulgaris GN76/C-1. Described as above. The format is cell-based. The procedure, abridged:
as §1

Data set [16] deals with Enterobacter cloacae G-0008. The description is as above. The conditions noted are these: G0008. The class given is cell-based. The procedure, abridged:
as §1

The test system of data set [17] is Pseudomonas aeruginosa GN10362. The description is as above. The class given is cell-based. In a few lines: as §1
Data set [18] can be described thus: recovery in urine of mice after oral administration (paper-disc assay). The format is in vivo, mice of ICR-strain. The conditions noted are these: ICR mice, male, 0.5 mg per mouse oral; 0-4 h; molar %, as free carboxylic acid; averaged. From the text: Thus, some tests were made to evaluate the amount or rate of the cephalosporin compound of this invention which can be recovered as the antibacterially active compound from the urine after it was orally given to mice.
The test compounds estimated in this test for their rate of recovery from urine are Compounds Nos. 2, 4, 6, 8, 10, 12, 14, 16, 18, 20, 22, 24, 26, 28, 30, 32, 34, 36 and 38 identified hereinbefore which are the particular examples of the cephalosporin derivative of general formula (I) of this invention and which are in the form of the pivaloyloxymethyl ester.
To mice of ICR-strain (male, 4-weeks-aged, five mice in each group) was orally administered the test compound identified above at a dosage of 0.5 mg per mouse. By the end of 4 hours after the administration of the test compound, all the amounts of the urine excreted by the treated mice were collected together, and the total quantity of the cephalosporin compound of this invention (as the free carboxylic acid form) in the urine so collected was determined according to a paper-disc assay method using Escherichia coli K-12 8236 strain as the assay strain. […]

Consider `CO/N=C(\C(=O)NC1C(=O)N2C(C(=O)OCOC(=O)C(C)(C)C)=C(SC3CCOC3)CS[C@H]12)c1csc(N)n1` (stereo partly drawn) [Compound No. 4, pivaloyloxymethyl 7-[(Z)-2-(2-aminothiazol-4-yl)-2-methoxyiminoacetamido]-3-(tetrahydrofuran-3-Yl) thio-3-cephem-4-carboxylate], for which the NOAEL in “oral toxicity in mice” is 3000 mg/kg.

On to `CO/N=C(\C(=O)NC1C(=O)N2C(C(=O)OCOC(=O)C(C)(C)C)=C(SCC3CCOC3)CS[C@H]12)c1csc(N)n1` (stereo partly drawn) [Compound No. 28, pivaloyloxymethyl 7-[(Z)-2-(2-aminothiazol-4-yl)-2-methoxyiminoacetamido]-3-(tetrahydrofuran-3-yl) methylthio-3-cephem-4-carboxylate], for which the NOAEL in “oral toxicity in mice” stood at 3000 mg/kg.

With `CO/N=C(\C(=O)NC1C(=O)N2C(C(=O)OCOC(=O)C(C)(C)C)=C(SCC3COCO3)CS[C@H]12)c1csc(N)n1` (stereo partly drawn) [Compound No. 30, pivaloyloxymethyl 7-[(Z)-2-(2-aminothiazol-4-yl)-2-methoxyiminoacetamido]-3-(1,3-dioxolan-4-yl) methylthio-3-cephem-4-carboxylate], in the data set “oral toxicity in mice”, the NOAEL is 3000 mg/kg.

Regarding `Nc1nc(/C(=N/O)C(=O)NC2C(=O)N3C(C(=O)O)=C(SCC4COCO4)CSC23)cs1` (stereo not drawn) [Compound No. 35], the MIC against Escherichia coli 255 was 50 µg/mL (≈ 103 µM); in data set [1], over 100 µg/mL; in [2], 0.39 µg/mL (≈ 0.8 µM); against Proteus vulgaris GN76, 12.5 µg/mL (≈ 25.6 µM); in [3], over 100 µg/mL; in data set [4] it was 0.05 µg/mL (≈ 0.103 µM). Besides, the MIC in data set [5] came to 12.5 µg/mL (≈ 25.6 µM); in data set [6], 0.2 µg/mL (≈ 0.41 µM); in data set [7] it was 12.5 µg/mL (≈ 25.6 µM); in data set [8], 0.39 µg/mL (≈ 0.8 µM); in [9] it was 0.39 µg/mL (≈ 0.8 µM); in [10], 12.5 µg/mL (≈ 25.6 µM). For the same compound, the MIC in data set [11] stood at 1.56 µg/mL (≈ 3.2 µM); in data set [12], 50 µg/mL (≈ 103 µM); in the data set with Escherichia coli 255/S-1, 0.39 µg/mL (≈ 0.8 µM); in data set [13], 0.2 µg/mL (≈ 0.41 µM); in the data set with Escherichia coli GN206, 12.5 µg/mL (≈ 25.6 µM); against Marganella morganii 1510, 50 µg/mL (≈ 103 µM). Besides, the MIC in data set [14] was 3.13 µg/mL (≈ 6.42 µM); in [15], 100 µg/mL (≈ 205 µM); in [16], 1.56 µg/mL (≈ 3.2 µM); in data set [17], over 100 µg/mL.

Turning to `Nc1nc(/C(=N/O)C(=O)NC2C(=O)N3C(C(=O)O)=C(SCC4CCOCC4)CS[C@H]23)cs1` (stereo partly drawn) [Compound No. 37, 7-[(Z)-2-(2-aminothiazol-4-yl)-2-hydroxyiminoacetamido]-3-(tetrahydropyran-4-yl)methylthio-3-cephem-4-carboxylic acid], the MIC against Escherichia coli 255 is 50 µg/mL (≈ 100 µM); in [1], over 100 µg/mL; in [2] it was 3.13 µg/mL (≈ 6.27 µM); in the data set with Proteus vulgaris GN76, 3.13 µg/mL (≈ 6.27 µM); in data set [3], over 100 µg/mL; in data set [4], 0.1 µg/mL (≈ 0.2 µM). The MIC in data set [5] is 50 µg/mL (≈ 100 µM); in data set [6], 0.78 µg/mL (≈ 1.56 µM); in data set [7], 12.5 µg/mL (≈ 25 µM); in data set [8], 3.13 µg/mL (≈ 6.27 µM); in data set [9], 0.39 µg/mL (≈ 0.781 µM); in data set [10], 25 µg/mL (≈ 50 µM). For the same compound, the minimal inhibitory concentration (MIC) stood at 6.25 µg/mL (≈ 12.5 µM) in [11]; 100 µg/mL (≈ 200 µM) in data set [12]; 3.13 µg/mL (≈ 6.27 µM) with Escherichia coli 255/S-1; 0.39 µg/mL (≈ 0.781 µM) in data set [13]; 12.5 µg/mL (≈ 25 µM) with Escherichia coli GN206; 100 µg/mL (≈ 200 µM) against Marganella morganii 1510. For the same compound, the MIC was 6.25 µg/mL (≈ 12.5 µM) in [14], 50 µg/mL (≈ 100 µM) in data set [15], 3.13 µg/mL (≈ 6.27 µM) in data set [16] and over 100 µg/mL in data set [17].

With `CC(C)(C)C(=O)OCOC(=O)C1=C(SCC2CCOCC2)CS[C@@H]2C(NC(=O)/C(=N\O)c3csc(N)n3)C(=O)N12` (stereo partly drawn) [Compound No. 38, pivaloyloxymethyl 7-[(Z)-2-(2-aminothiazol-4-yl)-2-hydroxyiminoacetamido]-3-(tetrahydropyran-4-yl) methylthio-3-cephem-4-carboxylate], the “Rate of recovery of test compound remaining in urine collected during 0 to 4 hours after oral administration” value in data set [18] is “Less than detectable amount”.

Source of the values: patent US5332731A, “Cephalosporin derivatives” (Meiji Seika Kaisha, Ltd., priority 1989, dated 1994).
